Test results as given in US10945978B2, “Treatment and diagnosis of melanoma” (The Rockefeller University, priority 2012, dated 2021).
Where a name gives a salt, the structure may show the parent alone.

What was measured:
[1] = test system: MeWo cells; assay: Orthotopic metastasis assay (lung colonization after tumor excision); assay type: in vivo, human; details: oral, 100 mg/kg for 1 month post-tumor excision
Description: To determine the effect of GW3965 treatment on lung colonization by melanoma cells dissociated from an orthotopic site, 1×10^6 MeWo cells expressing a luciferase reporter were subcutaneously injected into both lower flanks of NOD Scid mice. Upon the formation of tumors measuring ˜300 mm^3 in volume, the tumors were excised and the mice were randomly assigned to a control diet or a GW3965-supplemented diet (100 mg/kg) treatment. One month after tumor excision, the lungs were extracted and lung colonization was measured by ex vivo bioluminescence imaging. To histologically confirm the extent of melanoma lung colonization, lungs were then fixed in 4% PFA overnight, paraffin-embedded, section into […] increments and stained for human vimentin (VP-V684, Vector Laboratories).

[2] = test system: RCC human renal cancer cells, PANC1 human pancreatic cancer cells, H460 human lung cancer cells; assay: Matrigel invasion of renal, pancreatic and lung cancer cells treated with GW3965; assay type: cell-based; details: 1 μM for 72 hours prior to the assay
Description: Various cell lines (5×10^4 RCC human renal cancer cells, 5×10^4 PANC1 human pancreatic cancer cells, and 5×10^4 H460 human lung cancer cells) were treated with DMSO or GW3965 at 1 μM for 56 hours. The cells were serum starved for 16 hours in 0.2% FBS media in the presence of DMSO or GW3965. Following serum starvation, the cells were subjected to the trans-well invasion assay using a matrigel invasion chamber system (354480, BD Biosciences). Invasion chambers were pre-equilibrated prior to the assay by adding 0.5 mL of starvation media to the top and bottom wells. Meanwhile, cancer cells were trypsinized and viable cells were counted using trypan blue. Cancer cells were then resuspended at a concentration of 1×10^5 cells/1 mL starvation media, and 0.5 mL of cell suspension, containing 5×10^4 cells, was seeded into each trans-well. The invasion assay was allowed to proceed for 24 hours at 37° C. […] Following fixation, the inserts were washed in PBS and then cut out and mounted onto slides using VectaShield mounting medium containing DAPI nuclear stain (H-1000, Vector Laboratories). The basal side of each insert was imaged using an inverted fluorescence microscope (Zeiss Axiovert 40 CFL) at 5× magnification, and the number of DAPI-positive cells was quantified using ImageJ.

[3] = test system: MeWo brain-metastatic derivatives; assay: Brain metastasis assay, intracardiac injection into athymic nude mice; assay type: in vivo, human; details: oral, GW3965 diet 100 mg/kg from day 0
Description: Melanoma cells used for in vivo metastasis assays were transduced with a stably expressed retroviral construct encoding a luciferase reporter gene (Ponomarev et al., 2004), allowing us to monitor the in vivo progression of melanoma cells by bioluminescence imaging. The following numbers of melanoma cells, resuspended in 100 μL of PBS, were injected intravenously via the tail-vein: 4×10^4 MeWo cells, 2.5×10^5 HT-144 cells, 2×10^5 SK-Mel-334.2 cells, 5×10^4B16F10 cells, and 1×10^5 YUMM cells. The MeWo, HT-144, and SK-Mel-334.2 cells were injected into 6-8 week-old sex-matched NOD scid mice, while the B16F10 and YUMM cells were injected into 6-8 week-old sex-matched C57BL/6 mice. In all experiments assessing at the effects of GW3965 on metastasis formation, mice were pre-treated on a control diet or a GW3965-supplemented diet (20 mg/kg) for 10 days. To assess the effect of GW3965 treatment on brain metastasis, 1×10^5 MeWo brain-metastatic derivatives were injected intracardially into athymic nude mice. Immediately following injection, mice were randomly assigned to a control diet or GW3965-supplemented diet (100 mg/kg). […]

[4] = test system: endothelial cells; assay: Endothelial recruitment by breast, renal cell and pancreatic cancer cells with ApoE; assay type: cell-based
[5] = test system: HUVEC's; assay: Endothelial migration and chemotaxis assays (cancer cell-free); design: species or system human; details: trans-well assay and gradient-based chemotactic assay
Description: Serum-starved HUVEC's were pulsed with Cell Tracker Red CMTPX dye for 45 minutes and seeded into HTS Fluoroblock trans-well inserts at a concentration of 1×10^5 HUVEC's in 0.5 mL starvation media per each insert. The assay was allowed to proceed for 16-18 hours at 37° C., and the inserts were processed and analyzed as described above (See Matrigel Invasion Assay).
HUVEC's were serum-starved in 0.2% FBS EGM-2 media for 16 hours and labeled with Cell Tracker Red CMTPX dye for 45 minutes. Meanwhile, the indicated amounts (1-5 jag) of recombinant human ApoE3 or BSA were mixed with 250 μL of matrigel (356231, BD Biosciences) and allowed to solidify at the bottom of a 24-well plate for 30 min. 250 μL of HUVEC EGM-2 media containing 0.2% FBS was then added to each matrigel-coated well, and […] HTS Fluoroblock inserts were fitted into each well. 1×10^5 HUVEC's, resuspended in 0.5 mL of starvation media, were seeded into each insert and allowed to migrate along the matrigel gradient for 16-18 hours at 37° C. Upon completion of the assay, the inserts were mounted on slides and analyzed as described above (See Matrigel Invasion Assay).

[6] = test system: breast cancer, renal cell cancer, and pancreatic cancer cell lines; assay: Matrigel invasion of breast, renal cell and pancreatic cancer cell lines with recombinant ApoE; assay type: cell-based, human; details: recombinant ApoE3 100 μg/mL vs BSA
Description: The ability of cancer cells to invade through matrigel in vitro was tested by using a trans-well matrigel invasion chamber system (354480, BD Biosciences). Various cancer cell lines were serum-starved overnight in media containing 0.2% FBS. The following day, invasion chambers were pre-equilibrated prior to the assay by adding 0.5 mL of starvation media to the top and bottom wells. Meanwhile, cancer cells were trypsinized and viable cells were counted using the trypan blue dead cell exclusion dye. Cancer cells were then resuspended at a concentration of 1×10^5 cells/1 mL starvation media, and 0.5 mL of cell suspension, containing 5×10^4 cells, was seeded into each trans-well. To determine the effect of recombinant ApoE on cancer cell invasion, human recombinant ApoE3 (4696, Biovision) or BSA were added to each trans-well at 100 μg/mL at the start of the assay. The invasion assay was allowed to proceed for 24 hours at 37° C. […] Following fixation, the inserts were washed in PBS and then cut out and mounted onto slides using VectaShield mounting medium containing DAPI nuclear stain (H-1000, Vector Laboratories). The basal side of each insert was imaged using an inverted fluorescence microscope (Zeiss Axiovert 40 CFL) at 5× magnification, and the number of DAPI-positive cells was quantified using ImageJ.

Molecule	inhibition of lung colonization by disseminated melanoma cells [1]	tumor cell invasion [2]	systemic dissemination and brain colonization [3]	endothelial recruitment [4]	endothelial migration [5]	tumor cell invasion [6]
O=C(O)Cc1cccc(OCCCN(Cc2cccc(C(F)(F)F)c2Cl)CC(c2ccccc2)c2ccccc2)c1 [GW3965 2, 3-[3-[N-(2-Chloro-3-trifluoromethylbenzyl)-(2,2-diphenylethyl)amino]propyloxy] phenylacetic acid hydrochloride]	17 fold	inhibition	inhibited			
recombinant human ApoE: recombinant human ApoE3 (4696, BioVision)				inhibited	sufficient to inhibit	inhibited
